Results taken from article PMC5218480 (PLoS ONE, 2017).

Test system: MV-4-11 cells
Assay: Gene expression microarray analysis (Affymetrix PrimeView) and GSEA
Format: cell-based, human
Parameters: RFU PODN (11730768_x_at) / Fold change /veh PODN (11730768_x_at) / RFU LINC00158 (11744669_a_at) / Fold change /veh LINC00158 (11744669_a_at) / RFU DUSP10 (11751237_a_at) / Fold change /veh DUSP10 (11751237_a_at) / RFU ID3 (11757404_x_at) / Fold change /veh ID3 (11757404_x_at) / RFU PLEKHG5 (11737974_s_at) / Fold change /veh PLEKHG5 (11737974_s_at) / RFU LRRC4B (11730491_at) / Fold change /veh LRRC4B (11730491_at) / RFU GIMAP4 (11747438_a_at) / Fold change /veh GIMAP4 (11747438_a_at) / RFU KRT8 (11758183_x_at) / Fold change /veh KRT8 (11758183_x_at) / RFU CNN1 (11734310_a_at) / Fold change /veh CNN1 (11734310_a_at) / RFU VPS37D (11726825_at) / Fold change /veh VPS37D (11726825_at) / RFU C10orf10 (11716522_x_at) / Fold change /veh C10orf10 (11716522_x_at) / RFU KIR2DL2 /// KIR2DL4 /// KIR2DL5A /// KIR2DL5B /// KIR2DS1 /// KIR2DS2 /// KIR2DS3 /// KIR2DS4 /// KIR3DL3 /// KIR3DL3 /// KIR3DS1 (11738374_at) / Fold change /veh KIR2DL2 /// KIR2DL4 /// KIR2DL5A /// KIR2DL5B /// KIR2DS1 /// KIR2DS2 /// KIR2DS3 /// KIR2DS4 /// KIR3DL3 /// KIR3DL3 /// KIR3DS1 (11738374_at) / RFU C1QL1 (11718748_at) / Fold change /veh C1QL1 (11718748_at) / RFU TMPRSS4 (11747572_a_at) / Fold change /veh TMPRSS4 (11747572_a_at) / RFU HAMP (11756126_x_at) / Fold change /veh HAMP (11756126_x_at) / RFU RNFT2 (11725882_a_at) / Fold change /veh RNFT2 (11725882_a_at) / RFU NR4A2 (11747474_a_at) / Fold change /veh NR4A2 (11747474_a_at) / RFU ABCC12 (11746883_a_at) / Fold change /veh ABCC12 (11746883_a_at) / RFU TMEM136 (11760407_x_at) / Fold change /veh TMEM136 (11760407_x_at) / RFU CLDN22 /// WWC2 (11732394_at) / Fold change /veh CLDN22 /// WWC2 (11732394_at) / RFU HLA-DPB1 (11760878_x_at) / Fold change /veh HLA-DPB1 (11760878_x_at) / RFU SPINT1 (11716480_a_at) / Fold change /veh SPINT1 (11716480_a_at) / RFU GAP43 (11754022_s_at) / Fold change /veh GAP43 (11754022_s_at) / RFU A4GNT (11735810_at) / Fold change /veh A4GNT (11735810_at) / RFU PRB3 (11715151_x_at) / Fold change /veh PRB3 (11715151_x_at) / RFU TUBB4B (11761932_at) / Fold change /veh TUBB4B (11761932_at) / RFU CAPN14 (11732068_a_at) / Fold change /veh CAPN14 (11732068_a_at) / RFU TMCC2 (11721928_a_at) / Fold change /veh TMCC2 (11721928_a_at) / RFU IRGQ (11745062_a_at) / Fold change /veh IRGQ (11745062_a_at) / RFU FAM174B (11720279_a_at) / Fold change /veh FAM174B (11720279_a_at) / RFU TMPRSS4 (11748680_a_at) / Fold change /veh TMPRSS4 (11748680_a_at) / RFU FAM212B (11763350_a_at) / Fold change /veh FAM212B (11763350_a_at) / RFU PLEKHG5 (11743358_a_at) / Fold change /veh PLEKHG5 (11743358_a_at) / RFU ZSCAN30 (11745921_a_at) / Fold change /veh ZSCAN30 (11745921_a_at) / RFU CMKLR1 (11741424_a_at) / Fold change /veh CMKLR1 (11741424_a_at) / RFU LOC101060620 /// MAPK8IP1 (11723275_at) / Fold change /veh LOC101060620 /// MAPK8IP1 (11723275_at) / RFU SPTSSB (11747773_x_at) / Fold change /veh SPTSSB (11747773_x_at) / RFU PRSS12 (11739890_at) / Fold change /veh PRSS12 (11739890_at) / RFU BIN1 (11741810_x_at) / Fold change /veh BIN1 (11741810_x_at) / RFU WNT11 (11732464_a_at) / Fold change /veh WNT11 (11732464_a_at) / RFU C10orf10 (11716521_a_at) / Fold change /veh C10orf10 (11716521_a_at) / RFU C5orf56 (11738089_at) / Fold change /veh C5orf56 (11738089_at) / RFU CYB561 (11721691_x_at) / Fold change /veh CYB561 (11721691_x_at) / RFU ANKRD19P (11752326_a_at) / Fold change /veh ANKRD19P (11752326_a_at) / RFU OR2T12 /// OR2T33 /// OR2T8 (11738714_s_at) / Fold change /veh OR2T12 /// OR2T33 /// OR2T8 (11738714_s_at) / RFU VCAN (11748164_a_at) / Fold change /veh VCAN (11748164_a_at) / RFU JSRP1 (11732532_at) / Fold change /veh JSRP1 (11732532_at) / RFU KRTAP10-11 (11738290_x_at) / Fold change /veh KRTAP10-11 (11738290_x_at) / RFU MYO3A (11730013_a_at) / Fold change /veh MYO3A (11730013_a_at) / RFU EBF3 (11725865_a_at) / Fold change /veh EBF3 (11725865_a_at) / RFU CAMK2N1 (11719241_x_at) / Fold change /veh CAMK2N1 (11719241_x_at) / RFU C5orf56 (11738088_a_at) / Fold change /veh C5orf56 (11738088_a_at) / RFU OLFML3 (11715873_a_at) / Fold change /veh OLFML3 (11715873_a_at) / RFU LOC100653217 /// NTM (11731650_a_at) / Fold change /veh LOC100653217 /// NTM (11731650_a_at) / RFU MAPK11 (11762145_a_at) / Fold change /veh MAPK11 (11762145_a_at) / RFU FIZ1 (11724087_x_at) / Fold change /veh FIZ1 (11724087_x_at) / RFU OASL (11726364_x_at) / Fold change /veh OASL (11726364_x_at) / RFU SOX15 (11748057_x_at) / Fold change /veh SOX15 (11748057_x_at) / RFU CD79A (11719716_a_at) / Fold change /veh CD79A (11719716_a_at) / RFU HIST1H1D (11736915_at) / Fold change /veh HIST1H1D (11736915_at) / RFU CASKIN2 (11723855_a_at) / Fold change /veh CASKIN2 (11723855_a_at) / RFU LOC730098 (11760151_x_at) / Fold change /veh LOC730098 (11760151_x_at) / RFU OR4N2 (11742367_at) / Fold change /veh OR4N2 (11742367_at) / RFU PRRT2 (11749266_a_at) / Fold change /veh PRRT2 (11749266_a_at) / RFU SNX32 (11753110_a_at) / Fold change /veh SNX32 (11753110_a_at) / RFU CDHR5 (11726645_a_at) / Fold change /veh CDHR5 (11726645_a_at) / RFU RCAN1 (11760418_a_at) / Fold change /veh RCAN1 (11760418_a_at) / RFU FAM167A (11723789_a_at) / Fold change /veh FAM167A (11723789_a_at) / RFU FAM26E (11764081_at) / Fold change /veh FAM26E (11764081_at) / RFU ISYNA1 (11749810_s_at) / Fold change /veh ISYNA1 (11749810_s_at) / RFU ACY1 (11761880_at) / Fold change /veh ACY1 (11761880_at) / RFU 11764098_at / Fold change /veh 11764098_at / RFU SAMD14 (11745864_x_at) / Fold change /veh SAMD14 (11745864_x_at) / RFU NPB (11741838_a_at) / Fold change /veh NPB (11741838_a_at) / RFU TMPRSS6 (11731388_a_at) / Fold change /veh TMPRSS6 (11731388_a_at) / RFU KRTAP10-2 (11738614_at) / Fold change /veh KRTAP10-2 (11738614_at) / RFU ARHGAP8 /// PRR5-ARHGAP8 (11727945_x_at) / Fold change /veh ARHGAP8 /// PRR5-ARHGAP8 (11727945_x_at) / RFU KRTAP5-7 /// NADSYN1 (11734609_at) / Fold change /veh KRTAP5-7 /// NADSYN1 (11734609_at) / RFU RASL12 (11751679_a_at) / Fold change /veh RASL12 (11751679_a_at) / RFU CDKN2B (11736163_a_at) / Fold change /veh CDKN2B (11736163_a_at) / RFU PRF1 (11729649_at) / Fold change /veh PRF1 (11729649_at) / RFU, ZNF638 /// ZNF638-IT1 / Fold change vs veh, ZNF638 /// ZNF638-IT1 / RFU, PANK3 / Fold change vs veh, PANK3 / RFU, SH3YL1 / Fold change vs veh, SH3YL1 / RFU, ZEB2 / Fold change vs veh, ZEB2 / RFU, NRIP1 / Fold change vs veh, NRIP1 / RFU, PTTG1IP / Fold change vs veh, PTTG1IP / RFU, CAPN2 / Fold change vs veh, CAPN2 / RFU, MED14 / Fold change vs veh, MED14 / RFU, SNORA58 / Fold change vs veh, SNORA58 / RFU, C1orf63 / Fold change vs veh, C1orf63 / RFU, LRRFIP1 / Fold change vs veh, LRRFIP1 / RFU, NDUFAF7 / Fold change vs veh, NDUFAF7 / RFU, SLC12A2 / Fold change vs veh, SLC12A2 / RFU, IBTK / Fold change vs veh, IBTK / RFU, ESF1 / Fold change vs veh, ESF1 / Fold change vs veh, TMEM50B / RFU, TAOK1 / Fold change vs veh, TAOK1 / RFU, ACBD3 / Fold change vs veh, ACBD3 / RFU, TMA16 / Fold change vs veh, TMA16 / RFU, RWDD3 / Fold change vs veh, RWDD3 / RFU, BCAT1 / Fold change vs veh, BCAT1 / RFU, EDEM3 / Fold change vs veh, EDEM3 / RFU, TMEM33 / Fold change vs veh, TMEM33 / RFU, WDR75 / Fold change vs veh, WDR75 / RFU, AHCTF1 / Fold change vs veh, AHCTF1 / RFU, TFRC / Fold change vs veh, TFRC / RFU, ZDHHC17 / Fold change vs veh, ZDHHC17 / RFU, NOM1 / Fold change vs veh, NOM1 / RFU, ARL8B / Fold change vs veh, ARL8B / RFU, ZBTB11 / Fold change vs veh, ZBTB11 / RFU, TAMM41 / Fold change vs veh, TAMM41 / RFU, KIAA1704 /// LOC100996395 / Fold change vs veh, KIAA1704 /// LOC100996395 / RFU, ING1 / Fold change vs veh, ING1 / RFU, TRMT61B / Fold change vs veh, TRMT61B / RFU, FUBP3 / Fold change vs veh, FUBP3 / RFU, TP53 / Fold change vs veh, TP53 / RFU, TNKS2 / Fold change vs veh, TNKS2 / RFU, ZFP14 / Fold change vs veh, ZFP14 / RFU, ACTR2 / Fold change vs veh, ACTR2 / RFU, PPP3R1 / Fold change vs veh, PPP3R1 / RFU, PIK3R1 / Fold change vs veh, PIK3R1 / RFU, HNRNPA1 / Fold change vs veh, HNRNPA1 / RFU, RNF170 / Fold change vs veh, RNF170 / RFU, ZNF28 / Fold change vs veh, ZNF28 / RFU, RNGTT / Fold change vs veh, RNGTT / RFU, OGT / Fold change vs veh, OGT / RFU, BRD1 / Fold change vs veh, BRD1 / RFU, MARS / Fold change vs veh, MARS / RFU, ZNF655 / Fold change vs veh, ZNF655 / RFU, FAHD1 / Fold change vs veh, FAHD1 / RFU, BDP1 / Fold change vs veh, BDP1 / RFU, LRRCC1 / Fold change vs veh, LRRCC1 / RFU, ARID1A / Fold change vs veh, ARID1A / RFU, ZNF146 / Fold change vs veh, ZNF146 / RFU, ZNF330 / Fold change vs veh, ZNF330 / RFU, GPN3 / Fold change vs veh, GPN3 / RFU, C9orf123 / Fold change vs veh, C9orf123 / RFU, N4BP2L2 / Fold change vs veh, N4BP2L2 / RFU, ARFIP1 / Fold change vs veh, ARFIP1 / RFU, FAM179B / Fold change vs veh, FAM179B / RFU, BCL10 / Fold change vs veh, BCL10 / RFU, UHRF1BP1L / Fold change vs veh, UHRF1BP1L / RFU, BET1 / Fold change vs veh, BET1 / RFU, CNOT2 / Fold change vs veh, CNOT2 / RFU, ZNF268 / Fold change vs veh, ZNF268 / Fold change vs veh, ZNF507 / RFU, DGCR2 / Fold change vs veh, DGCR2 / RFU, WDSUB1 / Fold change vs veh, WDSUB1 / Fold change vs veh, HSP90B1 /// MIR3652 / RFU, ADSS / Fold change vs veh, ADSS / RFU, GK / Fold change vs veh, GK / RFU, ZNF148 / Fold change vs veh, ZNF148 / RFU, TAF9 / Fold change vs veh, TAF9 / RFU, SLC1A5 / Fold change vs veh, SLC1A5 / RFU, SLMO2 / Fold change vs veh, SLMO2 / RFU, ABCC4 / Fold change vs veh, ABCC4 / RFU, LOC101060439 /// RAP1B / Fold change vs veh, LOC101060439 /// RAP1B / RFU, RFX7 / Fold change vs veh, RFX7 / RFU, GTPBP10 / Fold change vs veh, GTPBP10 / RFU, CNEP1R1 / Fold change vs veh, CNEP1R1 / RFU, BIVM-ERCC5 /// ERCC5 / Fold change vs veh, BIVM-ERCC5 /// ERCC5 / RFU, ILF3 / Fold change vs veh, ILF3 / RFU 11762660_at / Fold change /veh 11762660_at / RFU VCAN (11757783_s_at) / Fold change /veh VCAN (11757783_s_at) / RFU DDX43 (11728927_at) / Fold change /veh DDX43 (11728927_at) / RFU KRT8 (11758188_x_at) / Fold change /veh KRT8 (11758188_x_at) / RFU NKD1 (11759106_at) / Fold change /veh NKD1 (11759106_at) / RFU SRD5A1 (11742802_a_at) / Fold change /veh SRD5A1 (11742802_a_at) / RFU TPSAB1 /// TPSB2 (11721975_s_at) / Fold change /veh TPSAB1 /// TPSB2 (11721975_s_at) / RFU GSTM3 (11746129_a_at) / Fold change /veh GSTM3 (11746129_a_at) / RFU IL23R (11737362_x_at) / Fold change /veh IL23R (11737362_x_at) / RFU TMEM51 (11727254_a_at) / Fold change /veh TMEM51 (11727254_a_at) / RFU PIWIL2 (11732686_x_at) / Fold change /veh PIWIL2 (11732686_x_at) / RFU ORM1 (11744905_x_at) / Fold change /veh ORM1 (11744905_x_at) / RFU CCDC152 (11743942_at) / Fold change /veh CCDC152 (11743942_at) / RFU ECM1 (11717891_a_at) / Fold change /veh ECM1 (11717891_a_at) / RFU IL23R (11748794_a_at) / Fold change /veh IL23R (11748794_a_at) / RFU TNFAIP8L3 (11732012_x_at) / Fold change /veh TNFAIP8L3 (11732012_x_at) / RFU MBOAT4 (11741988_at) / Fold change /veh MBOAT4 (11741988_at) / RFU 11764193_at / Fold change /veh 11764193_at / RFU TMEM53 (11763286_at) / Fold change /veh TMEM53 (11763286_at) / RFU MAGEB2 (11727129_at) / Fold change /veh MAGEB2 (11727129_at) / RFU TMEM200A (11744735_a_at) / Fold change /veh TMEM200A (11744735_a_at) / RFU CCDC152 (11751479_a_at) / Fold change /veh CCDC152 (11751479_a_at) / RFU FAM211A (11726209_a_at) / Fold change /veh FAM211A (11726209_a_at) / RFU RGS16 (11746705_a_at) / Fold change /veh RGS16 (11746705_a_at) / RFU VCAN (11755009_s_at) / Fold change /veh VCAN (11755009_s_at) / RFU RHOB (11743442_s_at) / Fold change /veh RHOB (11743442_s_at) / RFU RGS16 (11720943_a_at) / Fold change /veh RGS16 (11720943_a_at) / RFU RGS16 (11720944_at) / Fold change /veh RGS16 (11720944_at) / RFU, VPS4B / Fold change vs veh, VPS4B / RFU, CREB1 / Fold change vs veh, CREB1 / RFU, DNAJC13 / Fold change vs veh, DNAJC13 / RFU, GNAQ / Fold change vs veh, GNAQ / RFU, CDK5R1 / Fold change vs veh, CDK5R1 / RFU, ZRANB3 / Fold change vs veh, ZRANB3 / RFU, CUL4A / Fold change vs veh, CUL4A / RFU, CCNY / Fold change vs veh, CCNY / RFU, UFL1 / Fold change vs veh, UFL1 / RFU, COG3 / Fold change vs veh, COG3 / RFU, DIAPH2 / Fold change vs veh, DIAPH2 / RFU, SKA2 / Fold change vs veh, SKA2 / RFU, AFF3 / Fold change vs veh, AFF3 / RFU, LMF1 / Fold change vs veh, LMF1 / RFU, IPO11 / Fold change vs veh, IPO11 / RFU, DFFB / Fold change vs veh, DFFB / RFU, FOXP1 / Fold change vs veh, FOXP1 / RFU, CARD8 / Fold change vs veh, CARD8 / RFU, STRN3 / Fold change vs veh, STRN3 / RFU, ADK / Fold change vs veh, ADK / RFU, RASSF2 / Fold change vs veh, RASSF2 / RFU, WIPF1 / Fold change vs veh, WIPF1 / RFU, LARP1B / Fold change vs veh, LARP1B / RFU, RASA1 / Fold change vs veh, RASA1 / RFU, RB1 / Fold change vs veh, RB1 / RFU, PPFIA1 / Fold change vs veh, PPFIA1 / RFU, MAT2A / Fold change vs veh, MAT2A / RFU, CCT5 / Fold change vs veh, CCT5 / RFU, WDR92 / Fold change vs veh, WDR92 / RFU, CUX1 / Fold change vs veh, CUX1 / RFU, TTC7A / Fold change vs veh, TTC7A / RFU, TMEM135 / Fold change vs veh, TMEM135 / RFU, DEPTOR / Fold change vs veh, DEPTOR / RFU, CPM / Fold change vs veh, CPM / RFU, DNAJB6 / Fold change vs veh, DNAJB6 / RFU, CACNA2D3 / Fold change vs veh, CACNA2D3 / RFU, DTX4 / Fold change vs veh, DTX4 / RFU, TFCP2 / Fold change vs veh, TFCP2 / RFU, GMCL1 /// GMCL1P1 / Fold change vs veh, GMCL1 /// GMCL1P1 / RFU, AEBP2 / Fold change vs veh, AEBP2 / RFU, SNHG1 /// SNORD22 /// SNORD25 /// SNORD26 /// SNORD27 /// SNORD28 /// SNORD29 /// SNORD31 / Fold change vs veh, SNHG1 /// SNORD22 /// SNORD25 /// SNORD26 /// SNORD27 /// SNORD28 /// SNORD29 /// SNORD31 / Fold change (Aza/veh), C12orf56 (ProbeSet 11735607_a_at) / Fold change (ACY-1035/veh), C12orf56 (ProbeSet 11735607_a_at) / Fold change (Aza/veh), FGFR1OP (ProbeSet 11751329_s_at) / Fold change (ACY-1035/veh), FGFR1OP (ProbeSet 11751329_s_at) / Fold change (Aza/veh), VPS36 (ProbeSet 11739960_a_at) / Fold change (ACY-1035/veh), VPS36 (ProbeSet 11739960_a_at) / RFU SYPL1 (11715823_x_at) / Fold change /veh SYPL1 (11715823_x_at) / RFU IGFBP7 (11715501_s_at) / Fold change /veh IGFBP7 (11715501_s_at) / RFU REEP3 (11722064_at) / Fold change /veh REEP3 (11722064_at) / RFU IGLL1 (11728026_x_at) / Fold change /veh IGLL1 (11728026_x_at): dose or concentration left out as unconfirmed
Settings: MV-4-11 cells, 48 hours

## Nc1ncn([C@@H]2O[C@H](CO)[C@@H](O)[C@H]2O)c(=O)n1 [azacitidine]
  RFU PRSS12 (11739890_at): 6.78 RFU
